{"source": "patent US8637455B2", "about": "“Compositions and methods for delivery of glycopeptide antibiotics to medical device surfaces” (Affinergy, LLC, priority 2007, dated 2014)", "key": {"[1]": {"system": "Staphylococcus aureus strain MZ100", "test": "In vitro infection assay on titanium beads, colony counts", "assay_type": "cell-based", "details": "peptide 5 μM + vancomycin 100 μM", "protocol": "To illustrate the antibacterial activity of the peptide compositions, an in vitro infection assay was performed. Briefly, a surface material was contacted with one of the peptide compositions such that the peptide binds to the surface material. The peptide composition can have glycopeptide antibiotic already bound thereto at the time of contacting the peptide with the surface material, or the glycopeptide antibiotic can be contacted with the peptide in a step subsequent to binding the peptide composition to the surface material. The surface material was washed to remove unbound glycopeptide antibiotic, and then contacted with bacterial cells (added from a culture in log phase growth) and incubated to promote bacterial growth. The surface material was washed, and any bacterial cells colonizing the surface material removed and plated to assess bacterial growth.\nIn one example, Staphylococcus aureus strain MZ100 was used as the representative bacterial cells. First, as a representative surface material, titanium beads were sterilized in acetone in a sonication bath, and then air dried in a sterile hood. The beads were individually placed in sterilized microfuge tubes (one bead per tube). […] The next day, the plates were examined for bacterial growth, and the number of bacterial colonies was quantified per plate."}, "[2]": {"system": "binding between vancomycin and a peptide comprising the amino acid sequence of SEQ ID NO:1", "test": "Inhibition by Lys-D-Ala-D-Ala of specific binding between vancomycin and peptide SEQ ID NO:1", "protocol": "As an example, illustrated is the inhibition by Lys-D-Ala-D-Ala of specific binding between vancomycin and a peptide comprising the amino acid sequence of SEQ ID NO:1. To the wells of a 96 well plate coated with streptavidin was added 100 μl of a 0.2 μM solution of biotinylated peptide in buffer-T. After incubation, the wells were blocked by adding 200 μl of a 0.5 mM solution of biotin in buffer-T. The plates were then washed three times with buffer-T. Serial dilutions of Lys-D-Ala-D-Ala were prepared, and added individually to the wells such that Lys-D-Ala-D-Ala ranged in a final concentration of from about 1 μM to about 200 μM (in a volume of 35 μl). Also added to each well was 35 μl of biotinylated vancomycin (20 nM final concentration), and the plate was incubated at 30 minutes for room temperature. The wells were then washed three times with buffer-T, followed by the addition of 100 μl of streptavidin-alkaline phosphatase conjugate (1 mg/ml diluted 1:500 in buffer-T). Following a 30 minute incubation, the wells were washed five times with buffer-T. Added to each well was 100 μl of pNPP, followed by colorimetric detection after 12 minutes at an absorbance of 405 nm."}, "[3]": {"test": "Vancomycin loading on titanium surface by peptide compositions (HPLC assay)", "assay_type": "binding", "details": "peptide at 10 μM; vancomycin 200 μM; titanium beads; 30 minutes, 4 washes", "protocol": "In one experiment, titanium beads were placed into wells of a 96 well plate. To each well was added a range of concentrations (1-50 μM) of peptide composition comprising at least one surface-binding peptide coupled to at least one glycopeptide antibiotic binding peptide and vancomycin at 200 μM. The appropriate negative controls were also included. The plate was incubated for 30 minutes, and then the wells and beads were washed 4 times with buffer. After washing, 10 mM HCl was added to each well to elute remaining vancomycin from the metal bead. Bound vancomycin was measured by HPLC assay at detection wavelength 214 nm. […] In addition, binding assays performed using stainless steel rather than titanium beads as a representative surface material yielded similar results."}, "S. aureus": {"system": "S. aureus", "test": "Bacterial growth with loaded titanium beads, optical density at 600 nm", "assay_type": "cell-based", "details": "peptide 10 μM + vancomycin 200 μM, 37° C. for 18 hours", "protocol": "In another experiment, antimicrobial activity of the peptide compositions was measured as follows. Titanium beads were placed into wells of a 96 well plate. To each well was added a 10 μM of peptide composition comprising at least one surface-binding peptide coupled to at least one glycopeptide antibiotic binding peptide and vancomycin at 200 μM. The appropriate negative controls were also included. The plate was incubated for 1 hour at 20° C., and then the wells and beads were washed 4 times with buffer. After washing, the beads were transferred to the well of a plate containing S. aureus in log phase growth and incubated at 37° C. for 18 hours. Bacterial growth was assessed by reading optical density at 600 nm."}, "[4]": {"test": "Binding of alkaline-phosphatase linked peptides to immobilized biotinylated vancomycin", "details": "absorbance at 405 nm", "text": "From the peptide amino acid sequence […] (SEQ ID NO: 1) additional peptides were designed and expressed in the bacterial expression system described herein to further evaluate structure-function relationships. A truncated peptide comprising the amino acid sequence of SEQ ID NO:9 (STCLIDMYGVCH) was expressed and compared to a peptide comprising SEQ ID NO:1 for binding affinity for glycopeptide antibiotic. Also produced were a dimer of this truncated peptide (SEQ ID NO:10; […]), a D to A substitution (SEQ ID NO:11; STCLIAMYGVCH), a D to E substitution (SEQ ID NO:12; STCLIEMYGVCH), and a G to S substitution (SEQ ID NO:13; STCLIDMYSVCH). Relative binding strengths of these peptides and of other representative peptides to glycopeptide antibiotic were determined by EC50 values for binding to vancomycin or other glycopeptide antibiotic.\nA typical binding assay for glycopeptide antibiotic was performed according to the following procedure. The concentrations of the alkaline-phosphatase linked variant peptides were normalized to equal levels based on the alkaline-phosphatase activity as determined in a kinetic assay with the alkaline-phosphatase specific chromogenic substrate p-nitrophenyl phosphate (p-NPP). A streptavidin coated microtiter plate was coated with biotinylated vancomycin. Serial dilutions of normalized alkaline-phosphatase linked peptides were allowed to bind to the immobilized vancomycin and detected by addition of the alkaline-phosphatase specific chromogenic substrate p-NPP. Relative affinity for peptide binding to the immobilized vancomycin was determined by measuring the absorbance at 405 nm of the colored product of the alkaline phosphatase reaction. […] EC50 values for the synthetic peptides binding to vancomycin were determined as described in Example 1 and are shown in Table 3. Preferred are peptides that bind to glycopeptide antibiotic with binding affinity of EC50 of less than or equal to about 1 μM, and more preferably, in the nanomolar range (e.g., <0.1 μM)."}, "S. aureus MZ100": {"system": "S. aureus MZ100", "test": "In vitro infection model on titanium pins, colony counts", "assay_type": "cell-based", "details": "composition 5 μM + vancomycin 100 μM, two hours with S. aureus MZ100", "protocol": "Acetone-sterilized titanium pins (1 mm diameter, 12 mm long) were first washed in PBS. These pins were then incubated in a solution (PBS) containing the respective composition (5 μM)+vancomycin (100 μM) for 15 minutes at room temperature, with intermittent inversion for coating. Each pin was then washed extensively in PBS and placed in 30 μL of S. aureus MZ100 cultured at 10^6 colony forming units (cfu) per mL, according to methods above. The coated pins were then inoculated in 30 mm lengths of 1.5 mm diameter silicone tubing, with closed ends. After incubation for two hours with shaking, the pin was placed in a new tube containing 1 mL PBS. After inverting several times, PBS was aspirated, and replaced with a fresh 1 mL of PBS. The pins were then sonicated at 20 kHz for four cycles of 15 seconds each. Supernatants (100 μL) and dilutions were plated on trypticase soy agar (TSA) plates, incubated for 24 hours at 37° C., and colonies were counted. An assay control included the same steps of the infection model, except that the pin is uncoated pin (i.e., without composition according to the presently disclosed subject matter bound thereto) (“Control”). As representative examples, compositions comprising the amino acid sequences of SEQ ID NOs: 125 and 126 were tested for antimicrobial activity using the in vitro infection model (see, Table 7, “A” & “B”, respectively)."}, "[5]": {"test": "Binding assay of peptide for gentamycin", "details": "gentamycin (an aminoglycoside antibiotic); similar assay format as for vancomycin", "protocol": "Using a similar binding assay format as described herein for vancomycin, the ability of a peptide comprising the amino acid sequence of SEQ ID NO: 1 to bind gentamycin (an aminoglycoside antibiotic) was determined."}}, "note": "*1 amine or outer side, *2 acyl side, *3 side chain or, on linkers, in order; H or OH if unused. Bridges are numbered along the chain shown (N, C = ends). Where no end group is shown, it is not given here. [ ]: non-standard residue; d: D form. The star is where a group is joined. (miniPEG)2 = linker of two mini-PEG units, (HN—CH2—CH2—O—CH2—CH2—O—CH2—C═O)2, O=C(COCCOCCN[*:1])NCCOCCOCC(=O)[*:2]; Myristoyl = CCCCCCCCCCCCCC(=O)*; Aun = NCCCCCCCCCCC(=O)O; AEEA = NCCOCCOCC(=O)O; Ahx = NCCCCCC(=O)O"}
{"substance": "119 (NHTISKNHKKKNKNSNKTR) [compound 119]", "values": [{"measurement": "bacterial growth on the plates", "setting": "[1]", "value": "completely inhibited"}]}
{"substance": "Lys-D-Ala-D-Ala", "values": [{"measurement": "inhibition of binding between vancomycin and peptide", "setting": "[2]; Lys-D-Ala-D-Ala between 100 μM to 200 μM", "value": "~100", "unit": "%"}, {"measurement": "IC50", "setting": "[2]; biotinylated vancomycin 20 nM, immobilized peptide SEQ ID NO:1, read-out: concentration of Lys-D-Ala-D-Ala needed to inhibit about 50% of the binding between vancomycin and peptide", "value": "~10", "unit": "µM"}]}
{"substance": "130 (SSCLIDIYGVCHNFDAY[AEEA][AEEA]HKKNNPKKKNKTRGSSK; disulfide 3-11 (inferred)) [compound 130]", "values": [{"measurement": "Picomoles vancomycin/cm^2", "setting": "[3]", "value": 83, "unit": "Picomoles vancomycin/cm^2"}, {"measurement": "inhibition of bacterial growth", "setting": "S. aureus", "value": "complete inhibition"}]}
{"substance": "12 (STCLIEMYGVCH) [compound 12]", "values": [{"measurement": "glycopeptide antibiotic binding", "setting": "[4]", "value": "no detectable glycopeptide antibiotic binding"}]}
{"substance": "13 (STCLIDMYSVCH) [compound 13]", "values": [{"measurement": "glycopeptide antibiotic binding", "setting": "[4]", "value": "no detectable glycopeptide antibiotic binding"}]}
{"substance": "131 (SSCLIDIYGVCHNFDAY[AEEA][AEEA]SSHRTNHKKNNPKKKNKTRGSSGK; disulfide 3-11 (inferred)) [compound 131]", "values": [{"measurement": "Picomoles vancomycin/cm^2", "setting": "[3]", "value": 76, "unit": "Picomoles vancomycin/cm^2"}, {"measurement": "inhibition of bacterial growth", "setting": "S. aureus", "value": "complete inhibition"}]}
{"substance": "STCLIDMYGVCH [compound 9]", "values": [{"measurement": "glycopeptide antibiotic binding", "setting": "[4]", "value": "displayed glycopeptide antibiotic binding"}]}
{"substance": "AUD-AUD-AUD-SSCLIDIYGVCHNFDAY-(miniPEG)2-HKKNNPKKKNKTRGSSK ([Aun][Aun][Aun]SSCLIDIYGVCHNFDAY[(miniPEG)2]HKKNNPKKKNKTRGSSK; disulfide 6-14 (inferred)) [SEQ ID NO: 126]", "values": [{"measurement": "# of bacterial colonies (CFU)", "setting": "S. aureus MZ100", "value": "<10", "unit": "CFU"}]}
{"substance": "Myr-Ahx-SSCLIDIYGVCHNFDAY-(miniPEG)2-HKKNNPKKKNKTRGSSK ({Myristoyl-Ahx}-SSCLIDIYGVCHNFDAY[(miniPEG)2]HKKNNPKKKNKTRGSSK; disulfide 3-11 (inferred)) [SEQ ID NO: 125]", "values": [{"measurement": "# of bacterial colonies (CFU)", "setting": "S. aureus MZ100", "value": 100, "unit": "CFU"}]}
{"substance": "CLIDMYGVCHNFDGAYDS [compound 1]", "values": [{"measurement": "binding affinity for gentamycin", "setting": "[5]", "value": "lacked significant binding affinity"}]}
{"substance": "11 (STCLIAMYGVCH) [compound 11]", "values": [{"measurement": "glycopeptide antibiotic binding", "setting": "[4]", "value": "no detectable glycopeptide antibiotic binding"}]}
{"substance": "NHTISKNHKKKNKNSNKTR [SEQ ID NO: 119]", "values": [{"measurement": "# of bacterial colonies", "setting": "[1]; 2 hour incubation with MZ100", "value": 0}]}
{"substance": "STCLIDMYGVCHSSCLIDMYGVCH [compound 10]", "values": [{"measurement": "glycopeptide antibiotic binding", "setting": "[4]", "value": "displayed glycopeptide antibiotic binding"}]}
